The source of these data is patent US5854282A, “3-benzoyl benzofuran derivatives as thyroid hormone antagonists” (Karo Bio AB, priority 1994, dated 1998).

Assay [1] addresses T1, human thyroid hormone receptor α (Homo sapiens, UniProt P10827).
T1 sequence (P10827 1-370): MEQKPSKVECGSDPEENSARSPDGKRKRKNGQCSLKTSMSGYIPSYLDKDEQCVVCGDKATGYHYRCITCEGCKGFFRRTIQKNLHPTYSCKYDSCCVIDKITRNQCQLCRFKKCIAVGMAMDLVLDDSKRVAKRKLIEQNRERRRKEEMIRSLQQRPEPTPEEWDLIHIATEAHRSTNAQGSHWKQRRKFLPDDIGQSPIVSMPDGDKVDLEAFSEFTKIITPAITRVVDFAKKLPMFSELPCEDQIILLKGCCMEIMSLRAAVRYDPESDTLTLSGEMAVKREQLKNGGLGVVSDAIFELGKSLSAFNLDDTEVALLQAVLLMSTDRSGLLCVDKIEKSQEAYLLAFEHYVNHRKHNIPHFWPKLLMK
In words: ALP reporter gene activity in TRAF α thyroid hormone reporter cells (agonism/antagonism ± T3). The class given is cell-based. Conditions: for antagonism to T3 in the ThRα reporter cell line / augmention of the agonism of T3 in the ThRα reporter cell line: in the presence of 1 nM T3; for partial agonist/antagonist activity in the ThRα reporter cell line: ±1 nM T3. Here is the method:
(§1) The biological activity of compounds in accordance with the invention was tested in thyroid hormone responsive reporter cell lines.
(§2) The thyroid hormone reporter cell lines (TRAF α and TRAF β) are genetically engineered, mammalian cell lines expressing thyroid hormone receptor (ThR) α and β, respectively. These thyroid hormone responding cell lines contain stable integrated artificial transcription units comprised of a thyroid hormone response element (TRE) and core promoter sequences fused to a downstream reporter gene encoding a secreted form of alkaline phosphatase (ALP).
(§3) In the absence of thyroid hormone the cells express only very low levels of the ALP reporter protein. […] The level of thyroid hormone dependent ALP protein expressed can be determined indirectly by an enzymatic chemiluminescence assay as previously described (Advances in Steroid Analysis '93, editor: Gorog S., Proceedings of the 5th Symposium on the analysis of Steroids, Published by Akademiai Kiado, Budapest, Hungary, p. 57-67). Briefly, an aliquot of the conditioned cell culture medium is mixed with AMPPD (disodium 3-4-methoxyspiro(1,2-dioxetane-3,2'-tricyclo(3,3.1)decan)-4-yl) phenyl phosphate containing assay buffer and incubated at 37° C. for 20 minutes. AMPPD was purchased from Boule Diagnostic, Sweden. The ALP in the medium sample dephosphorylates AMPPD generating an unstable intermediate which decomposes and emits light which is measured in a microplate format luminometer (Luminoskan, Labsystems, Finland). The rate of light emission is directly proportional to the level of ALP present in the sample.
The TRAF α and β cells, respectively, were seeded at a density of 2-2.5×10^4 cells/well in 96-well microtiterplates (suitable for growth of mammalian cells). The cells were seeded in Coon's medium (without phenolred) (SVA, Uppsala, Sweden)+10% FCS (Gibco-BRL) (hormone stripped) and cultivated overnight at 37° C. and 5% CO2 in a humidified incubator.
The cells were then cultivated at 37° C. and 5% CO2 in a humidified incubator for an additional 48 hours.
48 hours post addition of the hormonal/test compounds, cell number and cell morphology were examined under the light-microscope. A 10 μl aliquot of conditioned medium from each well was then transferred to white microtiterplates and assayed for the level of ALP reporter protein expressed (as described in Advances in Steroid Analysis '93 above). In addition, the cell toxic effect of compounds was determined by the colorimetric MTS/PMS assay according to the suppliers recommendation (Promega Corp. through Scandinavian Diagnostic Services, Sweden)
Hormone/test compounds added to the TRAF α and β reporter cells, respectively, per well in 96-well microtiter plates
Background: Reporter assays use an easily measured gene product as a stand-in for the process of interest.

The target of assay [2] is T2, human thyroid hormone receptor β1 (ThRβ1) (Homo sapiens, UniProt P10828).
T2 sequence (P10828 1-461): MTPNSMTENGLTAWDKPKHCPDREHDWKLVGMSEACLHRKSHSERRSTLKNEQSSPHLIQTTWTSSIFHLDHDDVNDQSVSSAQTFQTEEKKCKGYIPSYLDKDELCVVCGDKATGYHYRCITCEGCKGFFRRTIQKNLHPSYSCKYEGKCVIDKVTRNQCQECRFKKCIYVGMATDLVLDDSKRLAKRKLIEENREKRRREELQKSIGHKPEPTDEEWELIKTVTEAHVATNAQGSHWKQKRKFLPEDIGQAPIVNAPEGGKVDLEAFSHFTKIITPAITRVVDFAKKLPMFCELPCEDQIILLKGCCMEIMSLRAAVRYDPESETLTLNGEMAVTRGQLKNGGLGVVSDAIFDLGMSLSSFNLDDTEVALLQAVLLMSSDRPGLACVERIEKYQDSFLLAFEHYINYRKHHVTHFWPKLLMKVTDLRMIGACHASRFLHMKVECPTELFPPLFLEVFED
Nature of the assay: Competition with 125I-T3 for binding to human thyroid hormone receptor β1 (ThRβ1). The conditions noted are these: competition with 0.2 nM 125I-T3. How it is done:
(§4) A series of dilutions of each compound produced (Examples 1-15) were allowed to compete with a fixed concentration (0.2 nM) of ^125 I-T3 for binding to the human thyroid hormone receptor β1 (ThRβ1). In some examples, binding to the human thyroid hormone receptor α1 (ThRα1) was included.
(§5) After reaching equilibrium a separation step on Sephadex-G25 columns was introduced whereby the receptors were separated from compounds of low molecular weight (i.e the radioactive labeled hormones). The eluated receptor bound radioactivity was measured in a gamma-counter or with regular liquid scintillation counting.
(§6) An IC50 -value (The concentration of compound required to inhibit 50% of the binding of radioactive labeled hormone) was calculated from the curves.

In assay [3] the target is T3, human thyroid hormone receptor α1 (ThRα1) (Homo sapiens, UniProt P10827).
T3 sequence (P10827 1-410 isoform P10827-2): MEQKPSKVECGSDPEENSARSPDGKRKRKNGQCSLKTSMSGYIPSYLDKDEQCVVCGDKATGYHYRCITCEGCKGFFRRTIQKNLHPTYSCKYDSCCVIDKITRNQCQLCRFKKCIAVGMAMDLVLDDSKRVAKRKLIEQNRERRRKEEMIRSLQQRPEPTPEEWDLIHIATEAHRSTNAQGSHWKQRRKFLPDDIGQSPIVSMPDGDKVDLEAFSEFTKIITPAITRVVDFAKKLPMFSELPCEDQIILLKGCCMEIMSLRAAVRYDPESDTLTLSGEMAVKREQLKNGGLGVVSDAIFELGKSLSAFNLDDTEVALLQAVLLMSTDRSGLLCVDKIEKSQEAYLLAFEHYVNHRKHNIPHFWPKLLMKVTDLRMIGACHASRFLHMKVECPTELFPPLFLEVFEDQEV
In words: Competition with 125I-T3 for binding to human thyroid hormone receptor α1 (ThRα1). The conditions noted are these: competition with 0.2 nM 125I-T3. How it is done:
as §4, §5, §6

Assay [4] deals with T4, human thyroid hormone receptor β (Homo sapiens, UniProt P10828).
T4 sequence (P10828 1-461): T2 sequence (P10828 1-461)
Nature of the assay: ALP reporter gene activity in TRAF β thyroid hormone reporter cells (agonism/antagonism ± T3). The class given is cell-based. The conditions noted are these: for antagonist activity in the ThRβ reporter cell line: in the presence of 1 nM T3. Here is the method: as §1, §2, §3
The TRAF α and β cells, respectively, were seeded at a density of 2-2.5×10^4 cells/well in 96-well microtiterplates (suitable for growth of mammalian cells). […]
48 hours post addition of the hormonal/test compounds, cell number and cell morphology were examined under the light-microscope. […] In addition, the cell toxic effect of compounds was determined by the colorimetric MTS/PMS assay according to the suppliers recommendation (Promega Corp. through Scandinavian Diagnostic Services, Sweden) […]

Usually IC50 stands for the point on the concentration scale where inhibition reaches its midpoint.

On to `CCCCc1oc2ccc(NS(=O)(=O)C(F)(F)F)cc2c1C(=O)c1cc(I)c(OCC(=O)O)c(I)c1` [Example 1, 2-n-Butyl-3(3,5-diiodo-4-carboxymethoxybenzoyl)-5-trifluoromethylsulphonamidobenzofuran], for which, in assay [1], the “antagonism to T3 in the ThRα reporter cell line” value (“antagonism to T3” for short) is given as “no antagonism to T3” and the “augmention of the agonism of T3 in the ThRα reporter cell line” value (shortened to “augmention of the agonism of T3”) was “concentration dependent augmention of the agonism of T3”. For the same compound, the IC50 in assay [2] was 2.24 µM.
As for `CCCCc1oc2ccc(NC(=O)C(C)C)cc2c1C(=O)c1cc(I)c(OCC(=O)O)c(I)c1` [Example 2], in assay [1], the “antagonism to T3” value is on record as “no antagonism to T3” and the “augmention of the agonism of T3” value is on record as “concentration dependent augmention of the agonism of T3”. In assay [2], the IC50 was 6.61 µM.
For the compound `CCCCc1oc2ccc(NC(=O)c3ccc(OC)cc3)cc2c1C(=O)c1cc(I)c(OCC(=O)O)c(I)c1` [Example 3, 2-n-Butyl-3-(3,5-diiodo-4-carboxymethoxybenzoyl)-5-(4-methoxybenzamido)benzofuran], the IC50 in assay [2] was 1.51 µM.
On to `CCCCc1oc2ccc(NC(=O)c3ccc(O)cc3)cc2c1C(=O)c1cc(I)c(OCC(=O)O)c(I)c1` [Example 4, 2-n-Butyl-3-(3,5-diiodo-4-carboxymethoxybenzoyl)-5-(4-hydroxybenzamido)benzofuran], for which the IC50 in assay [3] is 2.51 µM; in assay [2], 2.04 µM.
Consider `CC(C)c1oc2ccc(NS(=O)(=O)C(F)(F)F)cc2c1Cc1cc(I)c(OCC(=O)O)c(I)c1` [Example 5, 2-Isopropyl-3-(3,5-diiodo-4-carboxymethoxybenzyl)-5-trifluoromethylsulphonamidobenzofuran], for which, in assay [1], the “antagonism to T3” value is listed as “no antagonism to T3” and the “augmention of the agonism of T3” value is “concentration dependent augmention of the agonism of T3”. Further, the IC50 in assay [2] was 7.94 µM.
For the compound `CC(C)c1oc2ccc(NS(=O)(=O)C(F)(F)F)cc2c1C(=O)c1cc(I)c(OCC(=O)O)c(I)c1` [Example 6, 2-isopropyl-3-(3,5-diiodo-4-carboxymethoxybenzoyl)-5-trifluoromethylsulphonamidobenzofuran], the IC50 in assay [2] is 3.72 µM.
Consider `COc1ccc(C(=O)Nc2ccc3oc(C(C)C)c(C(=O)c4cc(I)c(OCC(=O)O)c(I)c4)c3c2)cc1` [Example 7, 2-Isopropyl-3-(3,5-diiodo-4-carboxymethoxybenzoyl)-5-(4-methoxybenzamido)benzofuran], for which the IC50 in assay [2] was 3.63 µM.
For `CC(C)c1oc2ccc(NC(=O)c3ccc(O)cc3)cc2c1C(=O)c1cc(I)c(OCC(=O)O)c(I)c1` [Example 8, 2-Isopropyl-3-(3,5-diiodo-4-carboxymethoxybenzoyl)-5-(4-hydroxybenzamido)benzofuran], the IC50 in assay [2] is 1.82 µM.
For the compound `CCCCc1oc2ccc(NC(=O)c3ccc(F)cc3)cc2c1C(=O)c1cc(I)c(OCC(=O)O)c(I)c1` [Example 9, 2-n-Butyl-3-(3,5-diiodo-4-carboxymethoxybenzoyl)-5-(4-fluorobenzamido)benzofuran], the IC50 is 3.31 µM in assay [3] and 3.55 µM in assay [2].
Consider `CC(C)c1oc2ccc(NC(=O)c3ccc([N+](=O)[O-])cc3)cc2c1C(=O)c1cc(I)c(OCC(=O)O)c(I)c1` [Example 10, 2-Isopropyl-3-(3,5-diiodo-4-carboxymethoxybenzoyl)-5-(4-nitrobenzamido)benzofuran], for which the IC50 in assay [2] is 4.27 µM.
For `CCCCc1oc2ccc(NC(=O)Nc3ccc(OC)cc3)cc2c1C(=O)c1cc(I)c(OCC(=O)O)c(I)c1` [Example 11, 2-n-Butyl-3-(3,5-diiodo-4-carboxymethoxybenzoyl)-5-(4-methoxyphenylureido)benzofuran], the “partial agonist/antagonist activity in the ThRβ reporter cell line” value in assay [4] (±1 nM T3) is recorded as “partial agonist/antagonist activity”. Further, the results for the IC50 in assay [3] and in assay [2] were 3.24 µM and 3.72 µM, respectively. The “partial agonist/antagonist activity in the ThRα reporter cell line” value in assay [1] is “partial agonist/antagonist activity”.
As to `CCCCc1oc2ccc(NC(=O)Nc3ccc(O)cc3)cc2c1C(=O)c1cc(I)c(OCC(=O)O)c(I)c1` [Example 12, 2-n-Butyl-3-(3,5-diiodo-4-carboxymethoxybenzoyl)-5-(4-hydroxyphenylureido)benzofuran], the IC50 in assay [3] was 1.82 µM; in assay [2], 1.26 µM.
In the case of `CCCCc1oc2ccc(NC(=O)c3ccc(O)cc3)cc2c1C(=O)c1cc(Br)c(OCC(=O)O)c(Br)c1` [Example 13, 2-n-Butyl-3-(3,5-dibromo-4-carboxymethoxybenzoyl)-5-(4-hydroxybenzamido)benzofuran], the figures for the IC50 in assay [3] and in assay [2] were 2.57 µM and 2.4 µM, respectively.
For the compound `COc1ccc(C(=O)Nc2ccc3oc(C(C)C)c(C(=O)c4cc(Br)c(OCC(=O)O)c(Br)c4)c3c2)cc1` [Example 14, 2-Isopropyl-3-(3,5-dibromo-4-carboxymethoxybenzoyl)-5-(4-methoxybenzamido)benzofuran], in assay [4], the “antagonist activity in the ThRβ reporter cell line” value is recorded as “no or only weak antagonist activity”. Further, the IC50 was 3.63 µM in assay [3] and 3.47 µM in assay [2]. For the same compound, the “partial agonist/antagonist activity in the ThRα reporter cell line” value in assay [1] was “partial agonist/antagonist activity”.
On to `CC(C)c1oc2ccc(NC(=O)c3ccc(O)cc3)cc2c1C(=O)c1cc(Br)c(OCC(=O)O)c(Br)c1` [Example 15, 2-Isopropyl-3-(3,5-dibromo-4-carboxymethoxybenzoyl)-5-(4-hydroxybenzamido)benzofuran], for which the “antagonist activity in the ThRβ reporter cell line” value in assay [4] was “no or only weak antagonist activity”. The results for the IC50 in assay [3] and in assay [2] were 3.09 µM and 3.31 µM, respectively. For the same compound, the “partial agonist/antagonist activity in the ThRα reporter cell line” value in assay [1] is given as “partial agonist/antagonist activity”.
